Measurements reported in patent US20190218226A1, “PRODRUGS OF ANTICANCER AGENTS INDOTECAN AND INDIMITECAN” (Purdue Research Foundation, priority 2016, published 2019).

Key:
HOP-62 = assay: NCI60 antiproliferative screen, lung HOP-62; assay type: cell-based, human; conditions: Homo sapiens; HOP-62, 48 h, sulforhodamine B; read-out: Cytotoxicity (GI50) lung HOP-62
Protocol: (§1) All of the indenoisoquinolines were tested for antiproliferative activity in the National Cancer Institute's 60 cell line screen (NCI60). The cells were incubated with the tested compounds at 100, 10, 1, 0.1, and 0.01 μM concentrations for 48 h before treatment with sulforhodamine B dye. Optical densities were recorded, and their ratios relative to that of the control were plotted as percentage growth against the log 10 of the tested compound concentrations. The concentration that corresponds to 50% growth inhibition (GI50) is calculated by interpolation between the points located above and below the 50% percentage growth. The mean-graph midpoint (MGM) is an estimated average of the GI50 values derived from the NCI collection of 60 human cancer cell lines, where during the MGM calculation, anticancer agents with GI50 values that are outside the testing range of 0.01-100 μM are arbitrarily assigned the values of 0.01 and 100 μM, respectively. […] Also, the GI50 values of many of the substances vs. individual human cancer cell lines are below the lowest concentration used (0.01 μM) in the standard NCI testing protocol. […] For example, the MGM cytotoxicity values of 9, 15-17, and 19 are all very close to each other, but the Top1 inhibitory activities range from +++(+) to 0.

HCT-116 = assay: NCI60 antiproliferative screen, colon HCT-116; assay type: cell-based, human; conditions: Homo sapiens; HCT-116, 48 h, sulforhodamine B; read-out: Cytotoxicity (GI50) Colon HCT-116
Protocol: as §1

SF-539 = assay: NCI60 antiproliferative screen, CNS SF-539; assay type: cell-based, human; conditions: Homo sapiens; SF-539, 48 h, sulforhodamine B; read-out: Cytotoxicity (GI50) CNS SF-539
Protocol: as §1

UACC-62 = assay: NCI60 antiproliferative screen, melanoma UACC-62; assay type: cell-based, human; conditions: Homo sapiens; UACC-62, 48 h, sulforhodamine B; read-out: Cytotoxicity (GI50) melanoma UACC-62
Protocol: as §1

OVCAR-3 = assay: NCI60 antiproliferative screen, ovarian OVCAR-3; assay type: cell-based, human; conditions: Homo sapiens; OVCAR-3, 48 h, sulforhodamine B; read-out: Cytotoxicity (GI50) Ovarian OVCAR-3
Protocol: as §1

SN12C = assay: NCI60 antiproliferative screen, renal SN12C; assay type: cell-based, human; conditions: Homo sapiens, 48 h, sulforhodamine B, read-out: Cytotoxicity (GI50) renal SN12C
Protocol: as §1

DU-145 = assay: NCI60 antiproliferative screen, prostate DU-145; assay type: cell-based, human; conditions: Homo sapiens; DU-145, 48 h, sulforhodamine B; read-out: Cytotoxicity (GI50) prostate DU-145
Protocol: as §1

MCF-7 = assay: NCI60 antiproliferative screen, breast MCF-7; assay type: cell-based, human; conditions: Homo sapiens, MCF7; MCF-7, 48 h, sulforhodamine B; read-out: Cytotoxicity (GI50) breast MCF-7
Protocol: as §1

[1] = system: all human cancer cell lines successfully tested (NCI60); assay: NCI60 mean graph midpoint for growth inhibition; assay type: cell-based; conditions: all human cancer cell lines successfully tested; ± standard error; read-out: MGM (mean graph midpoint for growth inhibition)
Protocol: as §1

Human recombinant Top1 = biological target: T1, Human recombinant Top1 (Homo sapiens, UniProt P11387); assay: Top1-mediated DNA cleavage assay; assay type: biochemical; conditions: graded relative to 1 μM camptothecin
T1 construct: made in house
T1 sequence (P11387 1-765): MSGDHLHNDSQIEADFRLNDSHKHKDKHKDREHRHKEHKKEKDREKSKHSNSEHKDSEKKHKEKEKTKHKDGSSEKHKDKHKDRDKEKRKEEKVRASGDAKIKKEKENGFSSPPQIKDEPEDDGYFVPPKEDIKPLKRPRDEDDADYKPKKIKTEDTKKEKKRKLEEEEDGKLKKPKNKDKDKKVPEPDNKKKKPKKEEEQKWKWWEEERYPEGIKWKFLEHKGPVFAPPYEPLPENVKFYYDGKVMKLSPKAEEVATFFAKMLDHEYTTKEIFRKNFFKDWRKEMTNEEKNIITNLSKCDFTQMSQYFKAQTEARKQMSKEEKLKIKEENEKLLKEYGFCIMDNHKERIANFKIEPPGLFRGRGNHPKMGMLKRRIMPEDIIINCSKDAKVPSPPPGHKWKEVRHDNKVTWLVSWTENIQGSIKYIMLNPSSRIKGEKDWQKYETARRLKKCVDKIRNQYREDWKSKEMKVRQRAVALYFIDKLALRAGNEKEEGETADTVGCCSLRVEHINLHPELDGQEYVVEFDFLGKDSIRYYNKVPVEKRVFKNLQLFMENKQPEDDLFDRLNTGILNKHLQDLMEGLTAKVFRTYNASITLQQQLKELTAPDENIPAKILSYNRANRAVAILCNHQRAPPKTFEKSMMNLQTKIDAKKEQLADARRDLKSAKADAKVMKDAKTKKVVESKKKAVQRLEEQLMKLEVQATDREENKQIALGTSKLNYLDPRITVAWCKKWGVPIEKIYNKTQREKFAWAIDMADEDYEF
Protocol: All of the new indenoisoquinoline derivatives were tested in Top1-mediated DNA cleavage assays. For this purpose, a ^32P 3′-end labeled 117-bp DNA fragment was incubated with Top1 at four concentrations of a tested compound. The DNA fragments were separated on 20% PAGE denaturing gels. The Top1 inhibitory activities were assigned on the basis of the visual inspection of the number and intensities of the gel bands corresponding to Top1-mediated DNA cleavage fragments and scored relative to the Top1 inhibitory activity of compounds 1 and 4. Results are expressed in semiquantitative fashion: 0, no detectable activity; +, weak activity; ++, similar activity to compound 4; +++, greater activity than 4; ++++, equipotent with 1. Ambiguous scores (e.g., between two values) are designated with parentheses (e.g., ++(+) would be between ++ and +++). […] After conversion of the hydroxyl to a dimethylcarbamate, the observed Top1 inhibitory activity increased from ++(+) for compound 8 to +++ for compound 10. Introduction of an acetyl group at the 0-2 position yielded compound 11, which was also a Top1 poison with activity at the ++ level. Subsequently, several hydrophobic substituents were attached to the 0-2 position.
Topoisomerase I-Mediated DNA Cleavage Reactions.
Human recombinant Top1 was purified from baculovirus as previously described (Morrell, A., et al., J. Med. Chem. 2007, 50, 2040-2048). DNA cleavage reactions were prepared as previously reported with the exception of the DNA substrate (Strumberg, D., et al., J. Med. Chem. 1999, 42, 446-457). Briefly, a 117-bp DNA oligonucleotide (Integrated DNA Technologies) encompassing the previously identified Top1 cleavage sites in the 161-bp fragment from pBluescript SK(−) phagemid DNA was employed. This 117-bp oligonucleotide contains a single 5′-cytosine overhang, which was 3′-end-labeled by fill-in reaction with [α-^32P]dGTP in React 2 buffer (50 mM Tris-HCl, pH 8.0, […], 50 mM NaCl) with 0.5 unit of DNA polymerase I (Klenow fragment, New England BioLabs). Unincorporated [^32P]dGTP was removed using mini Quick Spin DNA columns (Roche, Indianapolis, Ind.), and the eluate containing the 3′-end-labeled DNA substrate was collected. Approximately 2 nM radiolabeled DNA substrate was incubated with recombinant Top1 in 20 μL of reaction buffer [10 mM Tris-HCl (pH 7.5), 50 mM KCl, 5 mM MgCl2, 0.1 mM EDTA, and 15 μg/mL BSA] at 25° C. for 20 min in the presence of various concentrations of compounds. The reactions were terminated by adding SDS (0.5% final concentration) followed by the addition of two volumes of loading dye (80% formamide, 10 mM sodium hydroxide, 1 mM sodium EDTA, 0.1% xylene cyanol, and 0.1% bromophenol blue). Aliquots of each reaction mixture were subjected to 20% denaturing PAGE. Gels were dried and visualized by using a phosphoimager and ImageQuant software (Molecular Dynamics). For simplicity, cleavage sites were numbered as previously described in the 161-bp fragment.

COc1cc2c3c(n(CCCN4CCOCC4)c(=O)c2cc1OC(=O)c1cccnc1)-c1cc2c(cc1C3=O)OCO2 [Compound 19, 2-Methoxy-6-(3-morpholinopropyl)-5,12-dioxo-6,12-dihydro-5H-[1,3]dioxolo[4′,5′:5,6]indeno[1,2-c]isoquinolin-3-yl Nicotinate]
GI50 (HOP-62): < 10 nM
GI50 (HCT-116): < 10 nM
GI50 (SF-539): < 10 nM
GI50 (UACC-62): < 10 nM
GI50 (OVCAR-3): 15 nM
GI50 (SN12C): < 10 nM
GI50 (DU-145): < 10 nM
GI50 (MCF-7): < 10 nM
mean GI50 across NCI60 cell lines (MGM) [1]: 35 nM
Top 1 Cleavage (Human recombinant Top1): + (+, between 20 and 50% activities)
melting point: 274 to 276 °C (dec.)
